Experimental data taken from patent publication EP3345917A1, “ANTIPROTOZOAL COMPOUNDS” (Bacoba AG, priority 2017, dated 2018).
Non-standard residues stand in square brackets, D forms with d. Residues, ends and D or L forms follow the SMILES beside them. *: point of attachment. Hexenoyl(2E,4S-Me) = CC[C@H](C)/C=C/C(=O)*; Leu(3R-OH) = CC(C)[C@@H](O)[C@H](N)C(=O)O; NH((S)CH(Me)CH2NMe2) = C[C@@H](CN(C)C)N*; Gly(octyl) = CCCCCCCC[C@H](N)C(=O)O; Piperazinyl(4-Me) = CN1CCN(*)CC1; Nle = CCCC[C@H](N)C(=O)O; Hexanoyl = CCCCCC(=O)*; Aib = CC(C)(N)C(=O)O; βAla = NCCC(=O)O

Experiments:
[1] = tested on: Trypanosoma cruzi trypomastigote forms (Tulahuen strain); experiment: Intracellular Trypanosoma cruzi assay in L6-cells, beta-galactosidase/CPRG readout; format: cell-based; settings: In vitro inhibition, read-out: T.cruzi.
Method: (§1) Tests were done in triplicate.
Trypanosoma cruzi trypomastigote forms (Tulahuen strain C2C4 containing β-galactosidase (Lac Z) gene) were cultured as described by Buckner et al. (Buckner FS et al. Antimicrob Agents Ch1996; 40: 2592-2597) in rat myoblast cells (L6-cells). […] After incubation, the substrate chlorophenyl red β-D-galactopyranoside agent CPRG/Nonident was added to all wells and a color change was developed within 2 to 6 h. The plates were read photometrically at 540 nm (Molecular Devices). Data were evaluated and IC50 values calculated using Softmax Pro software (Molecular Devices).

[2] = tested on: Axenically grown Leishmania donovani amastigotes (strain MHOM/ET/67/L82); experiment: Axenic Leishmania donovani amastigote resazurin assay; format: cell-based; settings: In vitro inhibition, read-out: L.don. ax
Method: as §1
Axenically grown Leishmania donovani amastigotes (strain MHOM/ET/67/L82) were grown and tests were done as previously described using the resazurin assay (Räz B et al. Acta Tropica 1997, 68:139-147). The plates were developed for 2-4 hours and read on a Spectramax Gemini XS micro plate fluorometer (Molecular Devices Cooperation) using an excitation wavelength of 536 nm and emission wavelength of 588 nm. Fluorescence development was measured and expressed as percentage of the negative control. […] Data were transferred to the graphic programme Softmax Pro (Molecular Devices), with which IC50 values were calculated.

[3] = tested on: Trypanosoma brucei rhodesiense (STIB 900 strain); experiment: Alamar Blue assay against Trypanosoma brucei rhodesiense grown in axenic medium; format: cell-based; settings: In vitro inhibition, read-out: T.b.rhod.
Method: as §1
Trypanosoma brucei rhodesiense (STIB 900) were grown in axenic medium as described by Baltz et al. (1985) The samples were tested using the Alamar Blue assay protocol (Baltz T et al. EMBO J 1985; 4:1273-1277) to determine the 50% inhibitory concentration (IC50). […] Melarsoprol (Arsobal®, Sanofi-Aventis, Switzerland) was used as a reference drug (IC50= 0.03 ± 0.01 µM). Its purity was over 95 %, as was certified by the supplier. The IC50 values were calculated by using Softmax Pro software (Molecular Devices Cooperation, Sunnyvale, CA).

[4] = Cytotoxicity assay on L6-cells (Alamar Blue); settings: rat, Cytotox L6, Cytotoxicity against rat myoblast cells (L6)
Method: Tests were done in triplicate. IC50 values against the parasites as well as cytotoxic effects against rat myoblast (L6-cells) were determined by serial dilution and repeated twice.
After 68 h of incubation under humidified 5% CO2 atmosphere, 10 µl of the Alamar blue marker was added to all wells. The plates were incubated for an additional 2 h. […] The IC50S were calculated by Softmax Pro software (Molecular Devices Cooperation, Sunnyvale, CA). […] Cytotoxicity was measured against rat myoblast cells (Cytotox L6).

Plasmodium falciparum = experiment: 3H-hypoxanthine incorporation assay against Plasmodium falciparum; format: cell-based; settings: In vitro inhibition, read-out: P.falc NF5
Method: as §1
IC50 values were calculated by linear interpolation.

SMILES: CCCCCCCC[C@H](NC(=O)[C@@H]1CCCN1C(=O)/C=C/[C@@H](C)CC)C(=O)N[C@H](C(=O)NCCC(=O)N[C@@H](C)CN(C)C)[C@H](O)C(C)C [Compound 5523, (2S)-N-[(1S,2R)-1-[(2-{[(2S)-1-(dimethylamino)propan-2-yl]carbamoyl}ethyl)carbamoyl]-2-hydroxy-3-methylbutyl]-2-{[(2S)-1-[(2E,4S)-4-methylhex-2-enoyl]pyrrolidin-2-yl]formamido}decanamide]
- IC50 [1]: 5.73 µM
- IC50 [2]: 0.482 µM
- IC50 [3]: 2.44 µM
- IC50 at 70 h [4]: 8.61 µM
- IC50 (Plasmodium falciparum): 4.75 µM

SMILES: CC[C@H](C)/C=C/C(=O)N1CCC[C@H]1C(=O)N[C@@H](C)C(=O)N[C@H](C(=O)NC(C)(C)C(=O)N[C@@H](CC(C)C)C(=O)N[C@@H](CC(C)C)C(=O)NC(C)(C)C(=O)NC(C)(C)C(=O)NCCC(=O)N[C@@H](C)CN(C)C)[C@H](O)C(C)C [Compound 5526, (2S,3R)-N-(1-{[(1S)-1-{[(1S)-1-{[1-({1-[(2-{[(2S)-1-(dimethylamino)propan-2-yl]carbamoyl}ethyl)carbamoyl]-1-methylethyl}carbamoyl)-1-methylethyl]carbamoyl}-3-methylbutyl]carbamoyl}-3-methylbutyl]carbamoyl}-1-methylethyl)-3-hydroxy-4-methyl-2-[(2S)-2-{[(2S)-1-[(2E,4S)-4-methylhex-2-enoyl]pyrrolidin-2-yl]formamido}propanamido]pentanamide] ({Hexenoyl(2E,4S-Me)}-PA[Leu(3R-OH)][Aib]LL[Aib][Aib][βAla]-{NH((S)CH(Me)CH2NMe2)})
- IC50 [1]: 4.5 µM
- IC50 [2]: 0.286 µM
- IC50 [3]: 0.00235 µM
- IC50 at 70 h [4]: 3.64 µM
- IC50 (Plasmodium falciparum): 0.0838 µM

SMILES: CCCCCCCC[C@H](NC(=O)[C@H](C)NC(=O)/C=C/[C@@H](C)CC)C(=O)N[C@H](C(=O)NC(C)(C)C(=O)N[C@@H](CC(C)C)C(=O)N[C@@H](CC(C)C)C(=O)NC(C)(C)C(=O)NC(C)(C)C(=O)NCCC(=O)N[C@@H](C)CN(C)C)[C@H](O)C(C)C [Compound 5527, (2S)-N-[(1S,2R)-1-[(1-{[(1S)-1-{[(1S)-1-{[1-({1-[(2-{[(2S)-1-(dimethylamino)propan-2-yl]carbamoyl}ethyl)carbamoyl]-1-methylethyl}carbamoyl)-1-methylethyl]carbamoyl}-3-methylbutyl]carbamoyl}-3-methylbutyl]carbamoyl}-1-methylethyl)carbamoyl]-2-hydroxy-3-methylbutyl]-2-[(2S)-2-[(2E,4S)-4-methylhex-2-enamido]propanamido]decanamide] ({Hexenoyl(2E,4S-Me)}-A[Gly(octyl)][Leu(3R-OH)][Aib]LL[Aib][Aib][βAla]-{NH((S)CH(Me)CH2NMe2)})
- IC50 [1]: 0.0679 µM
- IC50 [2]: 0.0011 µM
- IC50 [3]: 0.0018 µM
- IC50 at 70 h [4]: 0.274 µM
- IC50 (Plasmodium falciparum): 0.0084 µM

SMILES: CCCC[C@H](NC(=O)[C@@H]1CCCN1C(=O)/C=C/[C@@H](C)CC)C(=O)N[C@H](C(=O)NC(C)(C)C(=O)N[C@@H](CC(C)C)C(=O)N[C@@H](CC(C)C)C(=O)NC(C)(C)C(=O)NC(C)(C)C(=O)NCCC(=O)N[C@@H](C)CN(C)C)[C@H](O)C(C)C [Compound 5561, (2S)-N-[(1S,2R)-1-[(1-{[(1S)-1-{[(1S)-1-{[1-({1-[(2-{[(2S)-1-(dimethylamino)propan-2-yl]carbamoyl}ethyl)carbamoyl]-1-methylethyl}carbamoyl)-1-methylethyl]carbamoyl}-3-methylbutyl]carbamoyl}-3-methylbutyl]carbamoyl}-1-methylethyl)carbamoyl]-2-hydroxy-3-methylbutyl]-2-{[(2S)-1-[(2E,4S)-4-methylhex-2-enoyl]pyrrolidin-2-yl]formamido}hexanamide] ({Hexenoyl(2E,4S-Me)}-P[Nle][Leu(3R-OH)][Aib]LL[Aib][Aib][βAla]-{NH((S)CH(Me)CH2NMe2)})
- IC50 [1]: 0.162 µM
- IC50 [2]: 0.0041 µM
- IC50 [3]: 0.0007 µM
- IC50 at 70 h [4]: 0.356 µM
- IC50 (Plasmodium falciparum): 0.0045 µM

SMILES: CCCCCCCC[C@H](NC(=O)[C@@H]1CCCN1C(=O)/C=C/[C@@H](C)CC)C(=O)N[C@H](C(=O)NC(C)(C)C(=O)N[C@@H](CC(C)C)C(=O)N[C@@H](CC(C)C)C(=O)NC(C)(C)C(=O)NC(C)(C)C(=O)NCCC(=O)N1CCN(C)CC1)[C@H](O)C(C)C [Compound 5571, (2S)-N-[(1S,2R)-2-hydroxy-3-methyl-1-[(1-methyl-1-{[(1S)-3-methyl-1-{[(1S)-3-methyl-1-({1-methyl-1-[(1-methyl-1-{[3-(4-methylpiperazin-1-yl)-3-oxopropyl]carbamoyl}ethyl)carbamoyl]ethyl}carbamoyl)butyl]carbamoyl}butyl]carbamoyl}ethyl)carbamoyl]butyl]-2-{[(2S)-1-[(2E,4S)-4-methylhex-2-enoyl]pyrrolidin-2-yl]formamido}decanamide] ({Hexenoyl(2E,4S-Me)}-P[Gly(octyl)][Leu(3R-OH)][Aib]LL[Aib][Aib][βAla]-{Piperazinyl(4-Me)})
- IC50 [1]: 2.93 µM
- IC50 [2]: 0.398 µM
- IC50 [3]: 0.214 µM
- IC50 at 70 h [4]: 2.63 µM
- IC50 (Plasmodium falciparum): 0.125 µM

SMILES: CCCCCCCC[C@H](NC(=O)[C@@H]1CCCN1C(=O)CCCCC)C(=O)N[C@H](C(=O)NC(C)(C)C(=O)NC(C)(C)C(=O)NCCC(=O)N[C@@H](C)CN(C)C)[C@@H](C)O [Compound 5594, (2S)-N-[(1S)-1-[[(1S,2R)-1-[[2-[[2-[[3-[[(1S)-2-(dimethylamino)-1-methyl-ethyl]amino]-3-oxo-propyl]amino]-1,1-dimethyl-2-oxo-ethyl]amino]-1,1-dimethyl-2-oxo-ethyl]carbamoyl]-2-hydroxy-propyl]carbamoyl]nonyl]-1-hexanoyl-pyrrolidine-2-carboxamide] (Hexanoyl-P[Gly(octyl)]T[Aib][Aib][βAla]-{NH((S)CH(Me)CH2NMe2)})
- IC50 [1]: 8.61 µM
- IC50 [2]: 0.571 µM
- IC50 [3]: 2.24 µM
- IC50 at 70 h [4]: 6.02 µM
- IC50 (Plasmodium falciparum): 2.32 µM

SMILES: CCCCCCCC[C@H](NC(=O)[C@@H]1CCCN1C(=O)CCCCC)C(=O)N[C@H](C(=O)N[C@@H](CC(C)C)C(=O)NC(C)(C)C(=O)NC(C)(C)C(=O)NCCC(=O)N[C@@H](C)CN(C)C)[C@@H](C)O [Compound 5596, (2S)-N-[(1S,2R)-1-{[(1S)-1-{[1-({1-[(2-{[(2S)-1-(dimethylamino)propan-2-yl]carbamoyl}ethyl)carbamoyl]-1-methylethyl}carbamoyl)-1-methylethyl]carbamoyl}-3-methylbutyl]carbamoyl}-2-hydroxypropyl]-2-{[(2S)-1-hexanoylpyrrolidin-2-yl]formamido}decanamide] (Hexanoyl-P[Gly(octyl)]TL[Aib][Aib][βAla]-{NH((S)CH(Me)CH2NMe2)})
- IC50 [1]: 7.74 µM
- IC50 [2]: 0.791 µM
- IC50 [3]: 0.667 µM
- IC50 at 70 h [4]: 5.03 µM
- IC50 (Plasmodium falciparum): 1.24 µM

SMILES: CCCCCCCC[C@H](NC(=O)[C@@H]1CCCN1C(=O)CCCCC)C(=O)N[C@H](C(=O)N[C@@H](CC(C)C)C(=O)N[C@@H](CC(C)C)C(=O)NC(C)(C)C(=O)NC(C)(C)C(=O)NCCC(=O)N[C@@H](C)CN(C)C)[C@@H](C)O [Compound 5598, (2S)-N-[(1S,2R)-1-{[(1S)-1-{[(1S)-1-{[1-({1-[(2-{[(2S)-1-(dimethylamino)propan-2-yl]carbamoyl}ethyl)carbamoyl]-1-methylethyl}carbamoyl)-1-methylethyl]carbamoyl}-3-methylbutyl]carbamoyl}-3-methylbutyl]carbamoyl}-2-hydroxypropyl]-2-{[(2S)-1-hexanoylpyrrolidin-2-yl]formamido}decanamide] (Hexanoyl-P[Gly(octyl)]TLL[Aib][Aib][βAla]-{NH((S)CH(Me)CH2NMe2)})
- IC50 [1]: 6.59 µM
- IC50 [2]: 0.556 µM
- IC50 [3]: 1.24 µM
- IC50 at 70 h [4]: 3.78 µM
- IC50 (Plasmodium falciparum): 2.13 µM

SMILES: CCCCCCCC[C@H](NC(=O)[C@@H]1CCCN1C(=O)CCCCC)C(=O)N[C@H](C(=O)N[C@@H](CC(C)C)C(=O)N[C@@H](CC(C)C)C(=O)NC(C)(C)C(=O)NCCC(=O)N[C@@H](C)CN(C)C)[C@@H](C)O [Compound 5599, (2S)-N-[(1S,2R)-1-{[(1S)-1-{[(1S)-1-({1-[(2-{[(2S)-1-(dimethylamino)propan-2-yl]carbamoyl}ethyl)carbamoyl]-1-methylethyl}carbamoyl)-3-methylbutyl]carbamoyl}-3-methylbutyl]carbamoyl}-2-hydroxypropyl]-2-{[(2S)-1-hexanoylpyrrolidin-2-yl]formamido}decanamide] (Hexanoyl-P[Gly(octyl)]TLL[Aib][βAla]-{NH((S)CH(Me)CH2NMe2)})
- IC50 [1]: 8.36 µM
- IC50 [2]: 4.81 µM
- IC50 [3]: 1.94 µM
- IC50 at 70 h [4]: 6.95 µM
- IC50 (Plasmodium falciparum): 3.5 µM
